Substitutions are numbered along the chain they refer to.
What was measured:
PtKCS4 = target: T1, PtKCS4 (Populus trichocarpa, UniProt U7E0F5); type: cell-based; conditions: inhibition; 30 °C, 4 days, yeast culture
T1 sequence (U7E0F5 1-524): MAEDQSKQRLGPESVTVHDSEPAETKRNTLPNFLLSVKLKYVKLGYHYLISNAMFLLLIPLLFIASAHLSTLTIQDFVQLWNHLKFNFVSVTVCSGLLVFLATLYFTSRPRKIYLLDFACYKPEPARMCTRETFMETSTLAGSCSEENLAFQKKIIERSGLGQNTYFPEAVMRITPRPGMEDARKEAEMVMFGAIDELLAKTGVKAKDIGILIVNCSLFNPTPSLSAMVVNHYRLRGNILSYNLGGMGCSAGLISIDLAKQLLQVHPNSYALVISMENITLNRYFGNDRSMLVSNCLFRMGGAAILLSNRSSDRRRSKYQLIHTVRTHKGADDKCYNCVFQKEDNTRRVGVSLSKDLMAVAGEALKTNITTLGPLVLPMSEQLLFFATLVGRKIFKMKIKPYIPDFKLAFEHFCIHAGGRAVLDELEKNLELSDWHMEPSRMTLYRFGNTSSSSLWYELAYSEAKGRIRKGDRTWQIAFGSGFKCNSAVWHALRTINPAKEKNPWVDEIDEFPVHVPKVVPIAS

PtKCS2 = target: T2, PtKCS2 (Populus trichocarpa, UniProt A0A2K1YQQ5); type: cell-based; conditions: inhibition; 30 °C, 4 days, yeast culture
T2 sequence (A0A2K1YQQ5 1-524): T1 sequence (U7E0F5 1-524) with C94S, T137K, T139V, C144F, R283C

| Compound | proportion of total VLC-FAMEs vs uninhibited control at 2 μM (PtKCS4) | proportion of total VLC-FAMEs vs uninhibited control at 2 μM (PtKCS2) |
| --- | --- | --- |
| CCc1cccc(CC)c1N(COC)C(=O)CCl [alachlor] | whereas alachlor and anilofos slightly reduced activity | whereas alachlor and anilofos slightly reduced activity |
| CC(C)N(C(=O)COc1nnc(C(F)(F)F)s1)c1ccc(F)cc1 [flufenacet] | Flufenacet and fentrazamide had the greatest effect on reducing VLCFA elongation in all three KCSs | Flufenacet and fentrazamide had the greatest effect on reducing VLCFA elongation in all three KCSs |

From article PMC9574513 (The Journal of Biological Chemistry, 2022)
